In patent US7996156B2, “Methods for predicting properties of molecules” (priority 2002, dated 2011):
Where two headings read alike, the source gives them in different places.

Legend:
[1] = biological target: T1, aryl hydrocarbon receptor (AhR) (Rattus norvegicus, UniProt P41738); conditions: rodent hepatic cytosol, cited from earlier work
T1 construct: rodent hepatic cytosol as a source of the AhR; from tissue; host or cells: rodent hepatic cytosol
T1 sequence (P41738 10-853): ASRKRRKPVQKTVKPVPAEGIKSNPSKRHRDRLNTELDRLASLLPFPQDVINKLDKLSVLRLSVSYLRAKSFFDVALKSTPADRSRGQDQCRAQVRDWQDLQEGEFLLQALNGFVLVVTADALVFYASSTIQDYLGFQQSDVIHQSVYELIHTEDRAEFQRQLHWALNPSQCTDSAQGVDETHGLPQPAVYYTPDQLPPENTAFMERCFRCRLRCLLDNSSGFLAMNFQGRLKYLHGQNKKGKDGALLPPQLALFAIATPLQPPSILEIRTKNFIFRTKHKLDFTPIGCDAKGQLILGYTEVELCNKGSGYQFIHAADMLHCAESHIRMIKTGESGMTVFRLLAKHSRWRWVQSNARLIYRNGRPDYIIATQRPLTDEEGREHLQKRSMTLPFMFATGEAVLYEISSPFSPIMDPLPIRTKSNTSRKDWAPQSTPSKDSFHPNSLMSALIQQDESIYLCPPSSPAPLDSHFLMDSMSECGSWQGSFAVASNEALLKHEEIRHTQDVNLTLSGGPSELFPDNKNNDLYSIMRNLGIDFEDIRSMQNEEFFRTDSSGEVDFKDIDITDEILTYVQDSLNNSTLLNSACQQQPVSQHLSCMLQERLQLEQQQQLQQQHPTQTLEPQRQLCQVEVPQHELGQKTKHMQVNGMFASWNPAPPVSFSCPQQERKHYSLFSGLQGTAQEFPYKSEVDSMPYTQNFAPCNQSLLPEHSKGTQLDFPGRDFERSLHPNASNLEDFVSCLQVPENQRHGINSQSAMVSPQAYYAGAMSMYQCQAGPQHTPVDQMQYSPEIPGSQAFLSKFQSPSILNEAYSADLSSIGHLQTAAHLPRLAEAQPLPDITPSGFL

estrogen receptor = biological target: T2, estrogen receptor (Rattus norvegicus, UniProt P06211); test: Competitive ER binding assay with [3H]E2 in rat uterine cytosol (NCTR)
T2 construct: in rat uterine cytosol, which was obtained from ovariectomized uteri of Sprague-Dawley rats; from tissue; host or cells: uterine cytosol of ovariectomized Sprague-Dawley rats
T2 sequence (P06211 1-600): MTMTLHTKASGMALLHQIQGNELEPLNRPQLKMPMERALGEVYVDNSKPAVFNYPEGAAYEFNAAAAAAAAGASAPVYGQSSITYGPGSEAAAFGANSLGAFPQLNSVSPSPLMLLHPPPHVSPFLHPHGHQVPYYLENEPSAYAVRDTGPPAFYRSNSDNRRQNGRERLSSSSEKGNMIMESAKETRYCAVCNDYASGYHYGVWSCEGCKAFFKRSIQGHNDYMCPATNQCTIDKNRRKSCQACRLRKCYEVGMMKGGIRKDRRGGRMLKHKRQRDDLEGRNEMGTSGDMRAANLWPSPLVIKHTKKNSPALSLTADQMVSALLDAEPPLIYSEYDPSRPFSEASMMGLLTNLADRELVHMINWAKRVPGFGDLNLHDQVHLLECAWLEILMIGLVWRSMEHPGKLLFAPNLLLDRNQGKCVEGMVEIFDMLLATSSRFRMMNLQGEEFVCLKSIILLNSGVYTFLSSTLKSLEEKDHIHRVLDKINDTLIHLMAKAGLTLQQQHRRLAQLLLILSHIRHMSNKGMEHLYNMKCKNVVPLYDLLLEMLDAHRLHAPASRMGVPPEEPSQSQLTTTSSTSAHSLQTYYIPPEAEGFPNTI
Description: The log relative binding activity (RBA) data for these 130 structurally diverse compounds was used to train the CoSCoSA models. The data was produced at NCTR using a competitive ER binding assay with radiolabeled estradiol ([^3H]E2) in rat uterine cytosol, which was obtained from ovariectomized uteri of Sprague-Dawley rats. […] For each of the 130 compounds, the ^13C 2D ^13C—^13C COSY NMR experiment was simulated using the ACD Labs CNMR version 5.0 2D predictor software. The COSY NMR spectra could be saved as two tables per compound.

[2] = log scale, competitive binding, [3H]-2,3,7,8-tetrachlorodioxin, previously reported training data
[3] = previously reported competitive in vitro AhR binding, [3H]-2,3,7,8-tetrachlorodioxin radioligand, values are log EC50
[4] = relative binding affinity vs 17-β-estradiol (RBA 100), rat uterine cytosol, 130 compound training set

SMILES | Experimental Log EC50 [1, 2] | Experimental Log EC50 [1, 3] | Exp. Log(RBA) (estrogen receptor; [4]) | Exp. Log(RBA) (estrogen receptor)
Clc1cc2c(cc1Cl)Oc1c(Cl)c(Cl)c(Cl)c(Cl)c1O2 [1,2,3,4,7,8-hexaCl-dibenzodioxin] | −7.55 | −7.55 |  | 
Clc1cc2oc3c(Cl)c(Cl)c(Cl)c(Cl)c3c2cc1Cl [1,2,3,4,7,8-hexaCl-dibenzofuran] | −7.64 | −7.64 |  | 
Clc1ccc2c(c1)Oc1c(Cl)c(Cl)c(Cl)c(Cl)c1O2 [1,2,3,4,7-pentaCl-dibenzodioxin] | −6.19 | −6.19 |  | 
Clc1c(Cl)c(Cl)c2c(c1Cl)Oc1ccccc1O2 [1,2,3,4-tetraCldibenzodioxin] | −6.88 | −6.88 |  | 
Clc1cc2c(oc3cc(Cl)c(Cl)c(Cl)c32)c(Cl)c1Cl [1,2,3,6,7,8-hexaCl-dibenzofuran] | −7.57 | −7.57 |  | 
Clc1cc2oc3c(Cl)cccc3c2c(Cl)c1Cl [1,2,3,6-tetraCl-dibenzofuran] | −7.46 | −7.46 |  | 
Clc1cc2c(cc1Cl)Oc1c(cc(Cl)c(Cl)c1Cl)O2 [1,2,3,7,8-pentaCl-dibenzodioxin] | −8.10 | −8.10 |  | 
Clc1cc2oc3cc(Cl)c(Cl)c(Cl)c3c2cc1Cl [1,2,3,7,8-pentaCl-dibenzofuran] | −8.12 | −8.12 |  | 
Clc1cc(Cl)c2c(c1)oc1cc(Cl)c(Cl)c(Cl)c12 [1,2,3,7,9-pentaCl-dibenzofuran] | −7.40 | −7.40 |  | 
Clc1ccc2c(c1)oc1cc(Cl)c(Cl)c(Cl)c12 [1,2,3,7-tetraCl-dibenzofuran] | −7.96 | −7.96 |  | 
Clc1cc2c(oc3c(Cl)cc(Cl)c(Cl)c32)c(Cl)c1Cl [1,2,4,6,7,8-hexaCl-dibenzofuran] | −6.08 | −6.08 |  | 
Clc1cc2c(cc1Cl)Oc1c(Cl)c(Cl)cc(Cl)c1O2 [1,2,4,7,8-pentaCl-dibenzodioxin] | −6.96 | −6.96 |  | 
Clc1cc(Cl)c2c(c1)oc1c(Cl)cc(Cl)c(Cl)c12 [1,2,4,7,9-pentaCl-dibenzofuran] | −5.70 | −5.70 |  | 
Clc1ccc2oc3c(Cl)cc(Cl)c(Cl)c3c2c1 [1,2,4,8-tetraCl-dibenzofuran] | −6.00 | −6.00 |  | 
Clc1cc(Cl)c2c(c1Cl)Oc1ccccc1O2 [1,2,4-triCl-dibenzodioxin] | −5.88 | −5.88 |  | 
Clc1cc2oc3c(Cl)c(Cl)cc(Cl)c3c2cc1Cl [1,3,4,7,8-pentaCl-dibenzofuran] | −7.70 | −7.70 |  | 
Clc1cc(Cl)c2c(c1)Oc1cc(Cl)c(Cl)cc1O2 [1,3,7,8-tetraCl-dibenzodioxin] | −7.10 | −7.10 |  | 
Clc1cccc2c1Oc1ccccc1O2 [1-Cl-dibenzodioxin] | −5.00 | −5.00 |  | 
Clc1ccc(-c2cc(Cl)c(Cl)c(Cl)c2Cl)cc1Cl [2,3,3′,4,4′,5-hexaCl-biphenyl] | −6.30 | −6.30 |  | 
O=c1c(O)c(-c2ccc(O)c(O)c2)oc2cc(O)ccc12 [fisetin] |  |  | −2.35 | 
CCCCCCCOC(=O)c1ccc(O)cc1 [heptyl-4-hydroxybenzoate] |  |  | −2.09 | 
CC[C@H](c1ccc(O)cc1)[C@@H](CC)c1ccc(O)cc1 [meso-hexestrol] |  |  |  | 2.48
C#C[C@]1(O)CC[C@H]2[C@@H]3CCc4cc(OC)ccc4[C@H]3CC[C@@]21C [mestranol] |  |  |  | 0.35

SMILES | Experimental Log EC50 [1, 2] | Experimental Log EC50 [1, 3] | Exp. Log(RBA) (estrogen receptor; [4]) | Exp. Log(RBA) (estrogen receptor)
COC(=O)c1ccc(O)cc1 [methyl-4-hydrobenzoate] |  |  | −3.44 | 
COc1ccc(C(c2ccc(O)cc2)C(Cl)(Cl)Cl)cc1 (stereo not shown) [monohydroxymethoxychlor] |  |  | −0.89 | 
COc1ccc(C(=C(Cl)Cl)c2ccc(O)cc2)cc1 [monohydroxymethoxychlorolefin] |  |  | −0.63 | 
CCC(c1ccc(O)cc1)C(CC)c1ccc(OC)cc1 (stereo not shown) [monomethyl ether hexestrol] |  |  | 0.97 | 
O=c1c(O)c(-c2ccc(O)cc2O)oc2cc(O)cc(O)c12 [morin] |  |  | −3.35 | 
C#C[C@]1(O)CC[C@H]2[C@@H]3CCc4cc(O)ccc4[C@H]3[C@@H](OC)C[C@@]21C [moxestrol] |  |  |  | 1.14
O=c1c(O)c(-c2cc(O)c(O)c(O)c2)oc2cc(O)cc(O)c12 [myricetin] |  |  |  | −2.75
O=C1C[C@@H](c2ccc(O)cc2)Oc2cc(O)cc(O)c21 [naringenin] |  |  |  | −2.13
CC(Cc1ccc(O)c(O)c1)C(C)Cc1ccc(O)c(O)c1 (stereo not shown) [nordihydroguariareticacid] |  |  | −1.51 | 
Clc1ccc(C(c2ccccc2Cl)C(Cl)(Cl)Cl)cc1 (stereo not shown) [o,p′,-DDT] |  |  | −2.85 | 
Oc1ccc(-c2ccccc2)cc1 [p-phenylphenol] |  |  |  | −3.04
O=C(O)c1ccccc1C(c1ccc(O)cc1)c1ccc(O)cc1 [phenolphthalin] |  |  | −3.67 | 
O=C(CCc1ccc(O)cc1)c1c(O)cc(O)cc1O [phloretin] |  |  |  | −1.16
CCCOC(=O)c1ccc(O)cc1 [propyl-4-hydroxybenzoate] |  |  |  | −3.22
COc1cc(O)c2c(=O)c(-c3ccc(O)cc3)coc2c1 [prunetin] |  |  |  | −2.74
C(=C(c1ccccc1)c1ccccc1)c1ccccc1 [triphenylethylene] |  |  | −2.78 | 
C[C@H]1CCCC(=O)CCCCCc2cc(O)cc(O)c2C(=O)O1 [zearalanone] |  |  |  | 0.32
CCC(c1ccc2cc(O)ccc2c1)C(C)(C)C(=O)O (stereo not drawn) [α,α-dimethylbethyl allenolic acid] |  |  | −0.02 | 
C[C@H]1CCC[C@H](O)CCCCCc2cc(O)cc(O)c2C(=O)O1 [α-zearalanol] |  |  | 1.48 | 
C[C@H]1CCC[C@H](O)CCC/C=C/c2cc(O)cc(O)c2C(=O)O1 [α-zearalenol] |  |  | 1.63 | 
C[C@H]1CCC[C@@H](O)CCCCCc2cc(O)cc(O)c2C(=O)O1 [β-zearalanol] |  |  | −0.19 | 
C[C@H]1CCC[C@@H](O)CCC/C=C/c2cc(O)cc(O)c2C(=O)O1 [β-zearalenol] |  |  | −0.69 | 
